Measurements taken from US20260035382A1, “COMPOUNDS AS SUMO ACTIVATING ENZYME INHIBITORS” (WIGEN BIOMEDICINE TECHNOLOGY (SHANGHAI) CO., LTD., priority 2022, published 2026).
Read-outs that look alike come from different tables or passages of the source.

Key:
SAE = SAE (Homo sapiens (Human), UniProt Q9UBT2); assay: In vitro inhibitory activity assay against SAE (SUMO-2/3 immunofluorescence in HCT116 cells); type: cell-based; details: 6 h incubation, read-out: SUMO IF IC50
Summary of the method: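 HCT116 cells treated with compounds for 6 h at 37 °C, then fixed, permeabilized and immunostained for SUMO-2/3 with FITC secondary detection. Fluorescence compared with DMSO control to give inhibition rate and IC50.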

[1] = In vivo pharmacokinetic experiment, intravenous administration; details: CD-1 female mice, 2 mpk; for Plasma AUClast: plasma (Table 5); for C0 / clearance / half-life / AUC(0-t) / Cmax / Vd: mouse, 2 mg/kg; for Vd: read-out: Vdss
Procedure: CD-1 female mice aged 6 to 8 weeks were intravenously administered at a dose of 2 mg/kg. The mice were fasted for at least 12 h before the administration and given food after the administration, and they were given ad libitum access to water during the experiment. On the day of the experiment, animals in the intravenous group were administered the corresponding compound by single injection via the tail vein at an administration volume of 0.2 mL/animal. The sample collection time was 0.083 h, 0.167 h, 0.5 h, 1 h, 2 h, 4 h, 8 h, and 24 h. About 150 μL of whole blood was collected through the submaxillary venous plexus at each time point (30 μL of whole blood was diluted with ultrapure water at a ratio of 1:3, and 120 μL of whole blood was centrifuged to obtain plasma) and used for concentration determination by high-performance liquid chromatography-tandem mass spectrometry (LC-MS/MS). All animals were sacrificed after the PK samples were collected at the last time point. The plasma concentration was processed using a non-compartmental model of Phoenix WinNonlin™ version 8.3 (Certara) pharmacokinetic software, and the pharmacokinetic parameters were calculated using a linear-log trapezoidal method.

[2] = whole blood, read-out: Whole blood AUClast
[3] = whole blood, read-out: Whole blood Cmax

SAE, sequence (Q9UBT2 whole entry): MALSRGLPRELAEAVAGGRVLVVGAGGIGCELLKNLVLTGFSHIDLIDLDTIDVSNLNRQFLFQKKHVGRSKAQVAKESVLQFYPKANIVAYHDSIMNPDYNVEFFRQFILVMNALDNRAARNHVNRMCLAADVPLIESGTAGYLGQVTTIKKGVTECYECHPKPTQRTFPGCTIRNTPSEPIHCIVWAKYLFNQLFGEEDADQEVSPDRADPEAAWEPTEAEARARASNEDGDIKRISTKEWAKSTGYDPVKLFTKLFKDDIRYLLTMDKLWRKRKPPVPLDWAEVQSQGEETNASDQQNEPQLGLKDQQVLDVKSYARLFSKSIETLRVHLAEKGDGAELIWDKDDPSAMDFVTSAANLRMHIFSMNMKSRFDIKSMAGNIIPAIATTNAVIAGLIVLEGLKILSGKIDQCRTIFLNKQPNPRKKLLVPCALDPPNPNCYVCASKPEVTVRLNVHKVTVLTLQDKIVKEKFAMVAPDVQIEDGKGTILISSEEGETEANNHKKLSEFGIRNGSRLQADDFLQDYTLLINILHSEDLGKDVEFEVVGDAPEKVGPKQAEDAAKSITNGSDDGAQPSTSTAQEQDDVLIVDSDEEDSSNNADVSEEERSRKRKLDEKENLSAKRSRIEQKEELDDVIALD
SAE, sequence (Q9UBE0 whole entry partner): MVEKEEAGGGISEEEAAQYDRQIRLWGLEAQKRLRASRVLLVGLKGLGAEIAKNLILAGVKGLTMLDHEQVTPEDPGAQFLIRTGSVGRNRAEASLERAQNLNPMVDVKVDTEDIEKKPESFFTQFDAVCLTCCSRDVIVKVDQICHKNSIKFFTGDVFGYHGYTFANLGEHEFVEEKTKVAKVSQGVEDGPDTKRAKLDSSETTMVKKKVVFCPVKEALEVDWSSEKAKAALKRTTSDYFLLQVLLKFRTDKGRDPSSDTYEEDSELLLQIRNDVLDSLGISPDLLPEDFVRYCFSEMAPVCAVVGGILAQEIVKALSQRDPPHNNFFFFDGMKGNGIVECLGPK

| Compound | IC50 (SAE; numeric values) | Whole blood AUClast/plasma AUClast ratio [1] | Whole blood Cmax/plasma Cmax ratio [1] | Plasma AUClast [1] | C0 ([1]; plasma) | clearance ([1]; plasma) | half-life ([1]; plasma) | AUC(0-t) ([1]; plasma, read-out: AUClast) | Cmax ([1]; plasma, read-out: Cmax) | Vd ([1]; plasma) | AUC(0-t) [1, 2] | Cmax [1, 3] | IC50 (SAE; class symbols) |
| --- | --- | --- | --- | --- | --- | --- | --- | --- | --- | --- | --- | --- | --- |
| NS(=O)(=O)OC[C@H]1C[C@@H](Nc2ncncc2C(=O)c2cc3c(s2)CCC[C@]32NCCc3ccc(Cl)cc32)C[C@@H]1O [Compound 6] | 27.8 nM | 39.0 | 19.7 | 881 ng·h/mL | 1080 ng/mL | 36.9 mL/min/kg | 1.45 h | 881 ng·h/mL | 798 ng/mL | 3.5 L/kg | 34400 ng·h/mL | 15800 ng/mL |  |
| NS(=O)(=O)OC[C@H]1C[C@@H](Nc2ncncc2C(=O)c2cc3c(s2)CCC[C@]32NCCc3ccc(F)cc32)C[C@@H]1O [Compound 9] | 36 nM | 32.7 | 23.9 | 580 ng·h/mL | 730 ng/mL | 56.9 mL/min/kg | 1.31 h | 580 ng·h/mL | 597 ng/mL | 3.91 L/kg | 19000 ng·h/mL | 14300 ng/mL |  |
| NS(=O)(=O)OC[C@H]1C[C@@H](Nc2ncncc2C(=O)c2cc3c(s2)COC[C@]32NCCc3ccc(Cl)cc32)C[C@@H]1O [Compound 21] | 87.5 nM | 45.9 | 17.5 | 1479 ng·h/mL | 1610 ng/mL | 21.1 mL/min/kg | 2.17 h | 1480 ng·h/mL | 1150 ng/mL | 3.03 L/kg | 67900 ng·h/mL | 20200 ng/mL |  |
| NS(=O)(=O)OC[C@H]1C[C@@H](Nc2ncncc2C(=O)c2cc3c(s2)CC[C@]32NCCc3ccc(Cl)cc32)C[C@@H]1O [Compound 48] | 41 nM |  |  |  | 839 ng/mL | 44 mL/min/kg | 1.32 h | 749 ng·h/mL | 719 ng/mL | 3.43 L/kg |  |  |  |
| NS(=O)(=O)OC[C@H]1C[C@@H](Nc2ncncc2C(=O)c2cc3c(s2)C=C[C@]32OCCc3ccc(Cl)cc32)C[C@@H]1O [Compound 297] |  |  |  |  |  |  |  |  |  |  |  |  | ≤ 50 nM |
| N#Cc1ccc2c(c1)C1(C=Cc3sc(C(=O)c4cncnc4N[C@@H]4C[C@H](COS(N)(=O)=O)[C@@H](O)C4)cc31)OCC2 (stereo partly drawn) [Compound 298] |  |  |  |  |  |  |  |  |  |  |  |  | 50 to 200 nM |
| N#Cc1ccc2c(c1)[C@]1(C=Cc3sc(C(=O)c4cncnc4N[C@@H]4C[C@H](COS(N)(=O)=O)[C@@H](O)C4)cc31)OCC2 [Compound 299] |  |  |  |  |  |  |  |  |  |  |  |  | > 200 nM |
| N#Cc1ccc2c(c1)[C@@]1(C=Cc3sc(C(=O)c4cncnc4N[C@@H]4C[C@H](COS(N)(=O)=O)[C@@H](O)C4)cc31)OCC2 [Compound 300] |  |  |  |  |  |  |  |  |  |  |  |  | ≤ 50 nM |
| Cc1sc(C(=O)c2cncnc2N[C@@H]2C[C@H](COS(N)(=O)=O)[C@@H](O)C2)cc1[C@@H]1NCCc2ccc(Cl)cc21 [TAK-981, reference compound] | 53.2 nM |  |  |  |  |  |  |  |  |  |  |  |  |
